Experimental data published in patent publication US12655116B2, “Substituted isophthalic acid diamides” (Bayer Aktiengesellschaft, priority 2020, dated 2026).

Columns and labels:
[1] = system: ABUTH; assay: Pre-emergence herbicidal action against ABUTH; assay type: in vivo, Abutilon theophrasti; conditions: for Pre-emergence action against ABUTH (herbicidal activity in percent): dosage 20 g/ha, scored visually after 3 weeks vs untreated controls, 100% = plants have died, 0% = like control plants
Method in brief: (§1)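 Herbicidal effect was assessed 3 weeks after treatment by visual comparison with untreated controls, 100% denoting dead plants. Aqueous WP or EC preparations had been applied at 600 to 800 l/ha with 0.2% wetting agent to the soil covering freshly sown seeds.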

[2] = system: ALOMY; assay: Pre-emergence herbicidal action against ALOMY; assay type: in vivo, Alopecurus myosuroides; conditions: 80 g/ha, pre-emergence, scored visually after 3 weeks vs untreated controls (100% = plants have died, 0% = like control plants)
Method in brief: as §1

[3] = system: AMARE; assay: Pre-emergence herbicidal action against AMARE; assay type: in vivo, Amaranthus retroflexus
Method in brief: as §1

[4] = system: AVEFA; assay: Pre-emergence herbicidal action against AVEFA; assay type: in vivo, Avena fatua
Method in brief: as §1

[5] = system: ECHCG; assay: Pre-emergence herbicidal action against ECHCG; assay type: in vivo, Echinochloa crus-galli
Method in brief: as §1

[6] = system: MATIN; assay: Pre-emergence herbicidal action against MATIN; assay type: in vivo, Matricaria inodora
Method in brief: as §1

[7] = system: SETVI; assay: Pre-emergence herbicidal action against SETVI; assay type: in vivo, Setaria viridis; conditions: dosage 80 g/ha
Method in brief: as §1

[8] = system: VERPE; assay: Pre-emergence herbicidal action against VERPE; assay type: in vivo, Veronica persica
Method in brief: as §1

[9] = system: VIOTR; assay: Pre-emergence herbicidal action against VIOTR; assay type: in vivo, Viola tricolor
Method in brief: as §1

[10] = system: ALOMY; assay: Post-emergence herbicidal action against ALOMY; assay type: in vivo, Alopecurus myosuroides; conditions: dosage 20 g/ha, visual assessment about 3 weeks after treatment vs untreated controls
Method in brief: (§2)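 Post-emergence greenhouse test; one-leaf stage, 2–3 wk post-sowing, sandy loam. Foliar spray of WP/EC in water, 600–800 l/ha, +0.2% wetting agent. Visual % action at ~3 wk vs untreated (100% = plants dead).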

[11] = system: AMARE; assay: Post-emergence herbicidal action against AMARE; assay type: in vivo, Amaranthus retroflexus; conditions: 20 g/ha, visual assessment about 3 weeks after treatment, 100% = plants have died, 0% = like control plants
Method in brief: as §2

[12] = system: AVEFA; assay: Post-emergence herbicidal action against AVEFA; assay type: in vivo, Avena fatua; conditions: 20 g/ha, visual assessment about 3 weeks after treatment, 100% = plants have died, 0% = like control plants
Protocol: Seeds of monocotyledonous and dicotyledonous weed and crop plants are laid out in sandy loam soil in wood-fiber pots, covered with soil and cultivated in a greenhouse under good growth conditions. 2 to 3 weeks after sowing, the test plants are treated at the one-leaf stage. The compounds of the invention, formulated in the form of wettable powders (WP) or as emulsion concentrates (EC), are then sprayed onto the green parts of the plants in the form of an aqueous suspension or emulsion at a water application rate equivalent to 600 to 800 l/ha, with addition of 0.2% wetting agent. After the test plants have been left to stand in the greenhouse under optimal growth conditions for about 3 weeks, the action of the preparations is assessed visually in comparison to untreated controls (herbicidal action in percent (%): 100% activity=the plants have died, 0% activity=like control plants). […] The tables below illustrate, in an illustrative manner, the post-emergence herbicidal action of the compounds of the invention, the herbicidal activity being stated in percent.

[13] = system: ECHCG; assay: Post-emergence herbicidal action against ECHCG; assay type: in vivo, Echinochloa crus-galli
Method in brief: as §2

[14] = system: MATIN; assay: Post-emergence herbicidal action against MATIN; assay type: in vivo, Matricaria inodora
Method in brief: as §2

[15] = system: PHBPU; assay: Post-emergence herbicidal action against PHBPU; assay type: in vivo, Pharbitis purpurea
Method in brief: as §2

[16] = system: SETVI; assay: Post-emergence herbicidal action against SETVI; assay type: in vivo, Setaria viridis
Method in brief: as §2

[17] = system: VERPE; assay: Post-emergence herbicidal action against VERPE; assay type: in vivo, Veronica persica
Method in brief: as §2

[18] = system: VIOTR; assay: Post-emergence herbicidal action against VIOTR; assay type: in vivo, Viola tricolor
Method in brief: as §2

[19] = system: ABUTH; assay: Post-emergence herbicidal action against ABUTH; assay type: in vivo, Abutilon theophrasti; conditions: dosage 20 g/ha, visual assessment about 3 weeks after treatment vs untreated controls
Method in brief: as §2

[20] = 80 g/ha, scored visually after 3 weeks vs untreated controls (100% = plants have died, 0% = like control plants)
[21] = 20 g/ha, scored visually after 3 weeks vs untreated controls, 100% = plants have died, 0% = like control plants

Compound	Pre-emergence action against ABUTH (herbicidal activity) [1, 20]	Pre-emergence action against ABUTH (herbicidal activity in percent) [1]	Pre-emergence action against ALOMY (herbicidal activity) [2]	Pre-emergence action against AMARE in % [3, 21]	Pre-emergence action against AMARE in % [3, 20]	Pre-emergence action against AVEFA in % ([4]; 80 g/ha, pre-emergence)	Pre-emergence action against ECHCG in % ([5]; 80 g/ha)	Pre-emergence action against MATIN in % ([6]; dosage 20 g/ha)	Pre-emergence action against MATIN in % ([6]; dosage 80 g/ha)	Pre-emergence action against SETVI in % [7]	Pre-emergence action against VERPE in % ([8]; dosage 80 g/ha)	Pre-emergence action against VIOTR in % ([9]; dosage 80 g/ha)	Post-emergence action against ALOMY in % [10]	Post-emergence action at 20 g/ha against AMARE in % [11]	Post-emergence action at 20 g/ha against AVEFA in % [12]	Post-emergence action against ECHCG in % ([13]; dosage 20 g/ha)	Post-emergence action against MATIN in % ([14]; dosage 20 g/ha)	Post-emergence action against PHBPU in % ([15]; dosage 20 g/ha)	Post-emergence action against VIOTR in % ([18]; 5 g/ha)	Post-emergence action against VIOTR in % ([18]; 20 g/ha)	other results
CSc1c(C(=O)Nc2nnnn2C)ccc(C(F)(F)F)c1C(=O)NCC1CC1 [Example 1-84]	100%	100%	100%	100%	100%	100%	100%	100%	100%	100%	100%	100%	100%	100%	80%	100%	90%	90%	100%	100%	Pre-emergence action against VERPE in % ([8]; dosage 20 g/ha): 80%; Post-emergence action against PHBPU in % ([15]; dosage 5 g/ha): 90%; Post-emergence action against SETVI in % ([16]; dosage 5 g/ha): 100%; Post-emergence action against SETVI in % ([16]; dosage 20 g/ha): 100%; Post-emergence action against VERPE in % ([17]; 20 g/ha): 90%
CSc1c(C(=O)Nc2nnnn2C)ccc(C(F)F)c1C(=O)NC(C)C1CC1 (stereo not drawn) [Example 1-353]	100%	100%	90%	100%	100%		100%	100%	100%	100%	100%	100%	80%	100%	80%	100%	90%	90%	100%	100%	Pre-emergence action against ECHCG in % ([5]; 20 g/ha): 90%; Pre-emergence action against VIOTR in % ([9]; dosage 20 g/ha): 100%; Post-emergence action against ABUTH in % [19]: 80%; Post-emergence action against ECHCG in % ([13]; dosage 5 g/ha): 100%; Post-emergence action against MATIN in % ([14]; dosage 5 g/ha): 80%; Post-emergence action against SETVI in % ([16]; dosage 20 g/ha): 100%; Post-emergence action against VERPE in % ([17]; 5 g/ha): 80%; Post-emergence action against VERPE in % ([17]; 20 g/ha): 90%
CCn1nnnc1NC(=O)c1ccc(C(F)F)c(C(=O)NCC2CC2)c1SC [Example 2-90]	100%	100%		100%	100%	90%	100%	100%	100%	100%	90%	100%		100%	80%	100%	90%		100%	100%	Pre-emergence action against AVEFA ([4]; 20 g/ha, scored visually after 3 weeks, 100% = plants have died, 0% = like control plants): 80%; Pre-emergence action against ECHCG in % ([5]; 20 g/ha): 90%; Pre-emergence action against VIOTR in % ([9]; dosage 20 g/ha): 80%; Post-emergence action against ABUTH in % [19]: 90%
CCn1nnnc1NC(=O)c1ccc(Cl)c(C(=O)NC2CC2)c1Br [Example 2-349]																					pest or weed control at 80 g/ha ([1]; Abutilon theophrasti, 504 h, 80 g/ha, scored visually after 3 weeks vs untreated controls (100% = plants have died, 0% = like control plants)): 100%; pest or weed control at 80 g/ha ([2]; Alopecurus myosuroides, 504 h): 100%; pest or weed control at 20 g/ha ([3]; Amaranthus retroflexus, 504 h, 20 g/ha, scored visually after 3 weeks vs untreated controls, 100% = plants have died, 0% = like control plants): 100%; pest or weed control at 80 g/ha ([3]; Amaranthus retroflexus, 504 h, 80 g/ha, scored visually after 3 weeks vs untreated controls, 100% = plants have died, 0% = like control plants): 100%; pest or weed control at 80 g/ha ([4]; Avena fatua, 504 h, 80 g/ha, pre-emergence): 100%; pest or weed control at 20 g/ha ([4]; Avena fatua, pre-emergence, 504 h, 20 g/ha, scored visually after 3 weeks, 100% = plants have died, 0% = like control plants): 90%; pest or weed control at 80 g/ha ([5]; Echinochloa crus-galli, 504 h, 80 g/ha): 90%; pest or weed control at 20 g/ha ([6]; Tripleurospermum inodorum, 504 h, dosage 20 g/ha): 90%; pest or weed control at 80 g/ha ([6]; Tripleurospermum inodorum, 504 h, dosage 80 g/ha): 100%; pest or weed control at 80 g/ha ([7]; Setaria viridis, 504 h): 100%; pest or weed control at 80 g/ha ([8]; Veronica persica, 504 h, dosage 80 g/ha): 80%; pest or weed control at 20 g/ha ([9]; Viola tricolor, 504 h, dosage 20 g/ha): 90%; pest or weed control at 80 g/ha ([9]; Viola tricolor, 504 h, dosage 80 g/ha): 100%; pest or weed control at 20 g/ha ([19]; Abutilon theophrasti, 504 h): 80%; pest or weed control at 20 g/ha ([10]; Alopecurus myosuroides, 504 h): 80%; pest or weed control at 20 g/ha ([11]; Amaranthus retroflexus, 504 h): 100%; pest or weed control at 20 g/ha ([12]; Avena fatua, 504 h): 90%; pest or weed control at 5 g/ha ([16]; Setaria viridis, 504 h, dosage 5 g/ha): 90%; pest or weed control at 20 g/ha ([16]; Setaria viridis, 504 h, dosage 20 g/ha): 100%; pest or weed control at 20 g/ha ([18]; Viola tricolor, 504 h, 20 g/ha): 80%
